Measured values from publication PMC5547393, “Aromatase inhibitory activity of 1,4-naphthoquinone derivatives and QSAR study” (EXCLI Journal, 2017).

How the values were obtained:
aromatase = assay: QSAR (MLR) prediction of aromatase inhibitory activity; details: for folds more potent than the compared analogue: pairs: 6c > 6, 7c > 7, 7a > 7, 6 > 6a, 7b > 7a, pIC50 based; for pIC50 fold greater than parent compound 1: predicted pIC50 versus experimental pIC50 0.301 of compound 1
Excerpt: Conceptually, a QSAR model was constructed using the data obtained from experimentally tested compounds (1-11). The constructed model was subsequently used to predict the activity of the additional set of structurally modified compounds (series 1-11) that were generated in silico.
Chemical structures of the tested compounds (1-11) along with their experimental IC50 values were used to construct the QSAR model. The IC50 values were converted to pIC50 values by taking the negative logarithm to base 10 (-log IC50) to obtain a normal distribution of data points.
The chemical structures of 11 tested compounds (1-11) and 39 structurally modified compounds (series 1-11) were drawn using the GaussView software (Dennington et al., 2003[11]). Optimization was performed to obtain the low-energy conformers for further calculation of molecular descriptor values. The compounds were geometrically optimized using Gaussian 09 (Frisch et al., 2009[13]) at the semi-empirical Austin Model 1 (AM1) level, followed by density functional theory (DFT) calculation using Becke's three-parameter hybrid method with the Lee-Yang-Parr correlation functional (B3LYP) together with the 6-31g(d) level. A set of 13 quantum chemical descriptors, i.e., mean absolute atomic charge (Qm), total energy (Etotal), total dipole moment (μ), highest occupied molecular orbital energy (EHOMO), lowest unoccupied molecular orbital energy (ELUMO), energy difference of HOMO and LUMO (HOMO-LUMOGap), electron affinity (EA), ionization potential (IP), Mulliken electronegativity (χ), hardness (η), softness (S), electrophilic index (ωi) and electrophilicity (ω), was extracted using a script developed in-house. The optimized structures were further calculated to obtain an additional set of 3,224 molecular descriptors using Dragon software version 5.5 (Talete, 2007[44]). The molecular descriptors obtained from the Dragon software included 22 classes, i.e., Constitutional descriptors, Topological descriptors, Walk and path counts, Connectivity indices, Information indices, 2D autocorrelation, Edge adjacency indices, Burden eigenvalues, Topological charge indices, Eigenvalue-based indices, Randic molecular profiles, Geometrical descriptors, RDF descriptors, 3D-MoRSE descriptors, WHIM descriptors, GETAWAY descriptors, Functional group counts, Atom-centered fragments, Charge descriptors, Molecular properties, 2D binary fingerprints and 2D frequency fingerprints.
Correlation-based feature selection was employed to initially select important descriptors from a large set of descriptors obtained from the calculation. The pair-correlation of each descriptor value and bioactivity (pIC50) was calculated using a Pearson's correlation coefficient (r) of 0.6 as a cut-off value. Descriptors with |r| < 0.6 were considered weakly correlated descriptors and were excluded from the study, whereas those with |r| ≥ 0.6 were selected for further selection process using stepwise multiple linear regression (MLR) as implemented in SPSS statistics 18.0 (SPSS Inc., USA[41]). Finally, a set of important descriptors was obtained for multivariate analysis.
Multivariate analysis was performed by Waikato Environment for Knowledge Analysis (WEKA) version 3.4.5 (Witten et al., 2011[47]) using a multiple linear regression (MLR) algorithm. Selected descriptor values and pIC50 values were assigned as independent variables (X) and dependent variables (Y), respectively. The MLR model was constructed according to Equation 2: […]
The data set was divided into a training set and a testing set by means of leave-one-out cross validation (LOO-CV). Conceptually, one sample was removed from the entire data set (N) and was used as the testing set, whereas the remaining samples (N-1) were used as the training set. The same sampling process was continued until every sample in the data set was used as the testing set to predict the variable Y (activity). […]

[1] = molecular target: T1, recombinant human aromatase (CYP19) (Homo sapiens, UniProt P11511); assay: Aromatase inhibition assay (Gentest kit, CYP19 with DBF fluorometric substrate); details: for Aromatase inhibitory activity category: category by experimental IC50
T1 sequence (P11511 1-503): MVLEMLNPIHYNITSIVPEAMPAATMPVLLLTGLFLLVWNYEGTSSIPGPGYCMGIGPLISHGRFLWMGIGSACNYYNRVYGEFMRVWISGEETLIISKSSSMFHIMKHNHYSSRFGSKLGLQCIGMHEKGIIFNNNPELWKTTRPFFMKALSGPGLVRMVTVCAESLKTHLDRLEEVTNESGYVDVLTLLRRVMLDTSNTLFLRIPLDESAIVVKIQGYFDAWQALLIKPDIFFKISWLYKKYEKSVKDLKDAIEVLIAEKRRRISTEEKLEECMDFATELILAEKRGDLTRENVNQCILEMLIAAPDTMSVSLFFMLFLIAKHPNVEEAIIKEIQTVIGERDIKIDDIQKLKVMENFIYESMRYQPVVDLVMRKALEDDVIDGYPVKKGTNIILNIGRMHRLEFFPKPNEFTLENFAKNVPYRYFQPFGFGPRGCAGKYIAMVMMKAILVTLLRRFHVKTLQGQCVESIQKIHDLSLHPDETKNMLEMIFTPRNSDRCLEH
Procedure: The assay was performed with a Gentest kit using enzyme CYP19 and DBF as a fluorometric substrate. DBF was dealkylated by aromatase and then hydrolyzed, yielding the fluorescein product. […] After the incubation at 37 °C for 30 min, the reaction was terminated by adding 50 µL of 2.2 N NaOH. […] The percentage of inhibition (% inhibition) was calculated using Equation 1. […] IC50 values were determined by plotting concentrations versus % inhibition.

MRC-5 cell line [2] = tested on: MRC-5 cell line; design: method as in Prachayasittikul et al., 2014[35]; details: normal MRC-5 cell line, ref Prachayasittikul et al., 2014[35], cited from earlier work; for IC50: read-out: MRC-5 (µM) cytotoxicity
MRC-5 cell line [3] = assay: Cytotoxicity against the normal MRC-5 cell line; format: cell-based; details: MRC-5 cytotoxicity versus aromatase IC50
Excerpt: The cytotoxicity of compounds 1-11 against the normal MRC-5 cell line (Table 1(Tab. 1)) was previously documented (Prachayasittikul et al., 2014[35]).

[4] = Aromatase inhibitory activity IC50, Inactive = % inhibition ≤ 50 % at 12.5 µM
[5] = Experimental aromatase inhibitory activity (pIC50), -log IC50 of the experimental IC50 values

Row | Compound | IC50 [1, 4] | IC50 [1, 5] | Aromatase inhibitory activity category [1] | IC50 (MRC-5 cell line [2]) | SI (selectivity index) (MRC-5 cell line [3]) | also measured
1 | CC(=O)c1cccc(N(C)C2=C(Cl)C(=O)c3ccccc3C2=O)c1 [Compound 6c] |  |  |  |  |  | folds more potent than the compared analogue (aromatase): 1.67 folds
2 | O=C1C(F)=C(F)C(=O)c2ccccc21 [Compound 1c] |  |  |  |  |  | pIC50 fold greater than parent compound 1 (aromatase): 2.04 fold
3 | CC(=O)c1ccc(NC2=C(Cl)C(=O)c3ccccc3C2=O)cc1 [Compound 7] | 5.3 µM | 5.3 µM | moderately active (moderately active (1 µM < IC50 < 10 µM)) | 12.3 ± 1.08 µM | 2.32 | 
4 | CC(=O)c1ccc(N(C)C2=C(Cl)C(=O)c3ccccc3C2=O)cc1 [Compound 7c] |  |  |  |  |  | folds more potent than the compared analogue (aromatase): 2.73 folds
5 | COc1ccc(CCNC2=C(Cl)C(=O)c3ccccc3C2=O)cc1OC [Compound 11] |  |  | inactive |  |  | MRC-5 (µM) cytotoxicity (MRC-5 cell line [2]): non-cytotoxic
6 | O=C1C(Cl)=C(Cl)C(=O)c2ccccc21 [Compound 1, 2,3-dichloro-1,4-naphthoquinone] | 0.5 ± 0.3 µM | 0.5 µM | highly active (highly active (IC50 < 1 µM)) | 23 ± 0.42 µM | 45.98 | IC50 fold lower than ketoconazole [1]: 5.2 fold
7 | O=C1C(Br)=C(Br)C(=O)c2ccccc21 [Compound 1a] |  |  |  |  |  | pIC50 fold greater than parent compound 1 (aromatase): 1.83 fold
8 | CCCCNC1=C(Cl)C(=O)c2ccccc2C1=O [Compound 2] | 8.7 ± 0.9 µM | 8.71 µM | moderately active (moderately active (1 µM < IC50 < 10 µM)) |  |  | MRC-5 (µM) cytotoxicity (MRC-5 cell line [2]): non-cytotoxic
9 | O=C1C(I)=C(I)C(=O)c2ccccc21 [Compound 1b] |  |  |  |  |  | pIC50 fold greater than parent compound 1 (aromatase): 11.90 fold; pIC50 fold greater than letrozole (aromatase; predicted pIC50 versus experimental pIC50 […] of letrozole): 1.03 fold
10 | O=C1C(Cl)=C(Nc2cccc3cccnc23)C(=O)c2ccccc21 [Compound 9] | 4.7 µM | 4.7 µM | moderately active (moderately active (1 µM < IC50 < 10 µM)) | 13.6 ± 1.33 µM | 2.89 | 
11 | CN(C1=C(Cl)C(=O)c2ccccc2C1=O)c1ccccc1 [Compound 4] | 0.5 ± 0.4 µM | 0.5 µM | highly active (highly active (IC50 < 1 µM)) | 8.6 ± 0.77 µM | 17.20 | 
12 | O=C1C(Cl)=C(NCCc2ccccc2)C(=O)c2ccccc21 [Compound 10] | 3.3 µM | 3.3 µM | moderately active (moderately active (1 µM < IC50 < 10 µM)) |  |  | MRC-5 (µM) cytotoxicity (MRC-5 cell line [2]): non-cytotoxic
13 | CC(=O)c1cccc(NC2=C(Cl)C(=O)c3ccccc3C2=O)c1 [Compound 6] | 3.1 µM | 3.1 µM | moderately active (moderately active (1 µM < IC50 < 10 µM)) | 15.5 ± 0.75 µM | 5.01 | folds more potent than the compared analogue (aromatase): 1.83 folds
14 | O=C1C(Cl)=C(Nc2ccc(C(=O)C(F)(F)F)cc2)C(=O)c2ccccc21 [Compound 7a] |  |  |  |  |  | folds more potent than the compared analogue (aromatase): 1.47 folds
15 | CN(C1=C(Cl)C(=O)c2ccccc2C1=O)c1ccc(C(=O)C(F)(F)F)cc1 [Compound 7b] |  |  |  |  |  | folds more potent than the compared analogue (aromatase): 2.28 folds
16 | COc1cccc2c1C(=O)c1c(O)c3c(c(O)c1C2=O)C[C@@](O)(C(=O)CO)C[C@@H]3O[C@H]1C[C@H](N)[C@H](O)[C@H](C)O1 [Doxorubicin, reference compound] |  |  |  |  |  | MRC-5 (µM) cytotoxicity (MRC-5 cell line [2]): non-cytotoxic
17 | O=C1C(Cl)=C(Nc2ccccc2)C(=O)c2ccccc21 [Compound 3] |  |  | inactive | 16.4 ± 1.28 µM |  | 
18 | CCN(C1=C(Cl)C(=O)c2ccccc2C1=O)c1ccccc1 [Compound 4a] |  |  |  |  |  | pIC50 fold greater than parent compound 1 (aromatase): 1.08 fold; fold less potent than letrozole (aromatase; predicted pIC50 versus letrozole): 10.68 fold
19 | CN(C1=C(Cl)C(=O)c2ccccc2C1=O)c1ccc(C(=O)O)cc1 [Compound 5d] |  |  |  |  |  | folds more potent than ketoconazole (aromatase; predicted pIC50 -0.329 versus ketoconazole pIC50 -0.415): 1.26 folds
20 | O=C(O)c1ccccc1NC1=C(Cl)C(=O)c2ccccc2C1=O [Compound 5] | 18 µM | 18 µM | weak | 86 ± 3.04 µM | 4.78 | 
21 | O=C1C(Cl)=C(Nc2ccc(Nc3ccccc3)cc2)C(=O)c2ccccc21 [Compound 8] | 1.9 µM | 1.9 µM | moderately active (moderately active (1 µM < IC50 < 10 µM)) | 20.8 ± 0.68 µM | 10.94 | 
